Measured values: US9944968B2, “Control of protein glycosylation by culture medium supplementation and cell culture process parameters” (Biogen MA Inc., priority 2013, dated 2018)
One block for each compound: values may come before it.

Tests used:
[1] = test system: immunoadhesin-expressing CHO cells; experiment: Fed-batch shake flask culture of immunoadhesin-expressing CHO cells: N-glycan (HILIC-UPLC) and ProG titer; format: cell-based, Chinese hamster; details: for Titer: Day 14 harvest; for % afucose / % charged / % galactosylation: fed-batch shake flask; for % afucose levels: addition to fed-batch shake flask cultures
Method: FIG. 3A and FIG. 3B. Effect of hypoxanthine and guanine on the growth (FIG. 3A) and viability (FIG. 3B) of fed-batch shake flask cultures of immunoadhesin-expressing CHO cells. Copper (II) sulfate was delivered as part of the 5×-concentrated DMEM/F12 feed media at a concentration of 1 mM in the feed media. The Day 14 final concentration of CuSO4 in the culture was 0.2 mM due to 20% feeding. Hypoxanthine was delivered as a 1 mM bolus from a 200 mM stock solution on Day 6 after the temperature shift. Guanine was delivered as a 0.2 mM bolus from a 100 mM stock solution on Day 6 after the temperature shift.
FIG. 4A and FIG. 4B. Effect of copper (II) sulfate on the growth (FIG. 4A) and viability (FIG. 4B) of fed-batch shake flask cultures of immunoadhesin-expressing CHO cells. Copper (II) sulfate was delivered as part of the 5×-concentrated DMEM/F12 feed media at a concentration of 1 mM in the feed media. The Day 14 final concentration of CuSO4 in the culture was 0.2 mM, due to 20% feeding. Alternatively, copper (II) sulfate was delivered as 0.2 mM and 0.5 mM boli on Day 6 from a stock solution.
Cell culture methods: Cells were thawed and maintained as in a previous report (Kshirsagar, et al. 2012 Biotechnol Bioeng, Huang, et al. Biotechnology Progress 26(5):1400-1410 (2010)). Basal medium for thaw and passing was the same as in previous reports (Kshirsagar/Huang). Briefly, cells were thawed and maintained in 3 L shake flasks (Corning Life Sciences, Corning, N.Y.) with 1 L working volumes and were passaged every 2-3 days. For maintenance cultures the incubator was controlled at 37° C. and 5% CO2. […]
(§1) Copper (II) sulfate, hypoxanthine, guanine, glucosamine, and galactose were delivered to two different immunoadhesin-expressing CHO cell cultures either as part of the feed media or as boli from distinct stock solutions. The typical culture process is a 14-day process that consists of a growth phase from Day 0 to Day 6 at 37° C. and a protein production phase from Day 6 to Day 14 at 30° C.

[2] = test system: immunoadhesin-expressing CHO cells; experiment: 3 L fed-batch bioreactor culture of immunoadhesin-expressing CHO cells: N-glycan (HILIC-UPLC), TSA and ProG titer; format: cell-based, Chinese hamster
Method: FIG. 5A and FIG. 5B. […] Copper (II) sulfate was delivered as part of the 5×-concentrated DMEM/F12 feed media at a concentration of 1 mM in the feed media. The Day 14 final concentration of CuSO4 in the culture was 0.25 mM, due to 25% feeding. In the CuSO4, glucosamine, and galactose combination conditions, copper (II) sulfate was delivered as part of the 5×-concentrated DMEM/F12 feed media at a concentration of 1 mM in the feed media. The Day 14 final concentration of CuSO4 in the culture was 0.22 mM, due to 22% feeding. Glucosamine was delivered as two 10 mM boli, each on Day 6 and Day 8. Galactose was delivered as part of the 5×-concentrated DMEM/F12 feed media from Day 6-14 at a concentration of 20 g/L in the feed. The Day 14 final concentration of galactose was 2.4 g/L, due to 12% feeding from Day 6-14. In the CuSO4 and hypoxanthine condition, copper (II) sulfate and hypoxanthine were delivered as part of the 5×-concentrated DMEM/F12 feed media at a concentration of 1 mM and 3 mM, respectively, in the feed media. The Day 14 final concentrations of CuSO4 and hypoxanthine in the culture were 0.23 mM and 0.7 mM, due to 23% feeding.
Bioreactor culture conditions: Fed batch cultures were performed in 5 L glass Applikon vessels using Finesse TruBio DV controllers (Finesse Solutions, San Jose, Calif.) with an initial working volume between 2-2.5 L. Bioreactors were seeded at constant seed density of 4×10^5 cells/ml. Concentrated feed medium was delivered on days 3, 5, and every day or every other day following through harvest. Temperature was maintained at 35° C. or 36° C. and pH was controlled at 7.1+/−0.2 by the addition of either 1 M sodium carbonate or carbon dioxide. Dissolved oxygen was maintained at 30%-40% by air and oxygen sparge using a drilled hole sparger. Agitation was maintained between 200-400 RPM throughout the culture to limit total gas flow, while an overlay was maintained between 0.005 and 0.04 vvm.
(§2) Offline analysis: Samples were taken on most days and analyzed with a variety of equipment. Cell density and viability were measured using the standard technique of trypan blue exclusion using a Cedex (Roche Innovatis AG, Germany). Cell viability and growth rate of the various cultures were measured during the culture time course at specific days post-inoculation.
as §1

CHO-043 cells = experiment: CHO-043 fed-batch shake flask culture: N-glycan (HILIC-UPLC), sialylation and ProG titer of the expressed immunoadhesin; format: cell-based, Chinese hamster
Method: FIG. 1A and FIG. 1B. Effect of glucosamine and galactose on the growth (FIG. 1A) and viability (FIG. 1B) of fed-batch shake flask cultures. Glucosamine was delivered as two 10 mM boli, each on Day 2 and Day 4 in both the glucosamine alone condition and the glucosamine/galactose combination condition. […] The Day 14 final concentration of galactose was 6 g/L, due to 30% feeding. Cell line: The cell line used in this study produced a growth factor receptor immunoadhesin polypeptide. The cell line was constructed using DG44 adapted to grow in serum-free medium (Prentice, 2007). The cell line DUXB11 was also used in this study. Cell culture methods: Cells were thawed and maintained as in a previous report ([…] al. 2012 Biotechnol Bioeng, Huang, et al. Biotechnology Progress 26(5):1400-1410 (2010)). Basal medium for thaw and passing was the same as in previous reports ([…]). Briefly, cells were thawed and maintained in 3 L shake flasks (Corning Life Sciences, Corning, N.Y.) with 1 L working volumes and were passaged every 2-3 days. For maintenance cultures the incubator was controlled at 37° C. and 5% CO2. Offline analysis: Samples were taken on most days and analyzed with a variety of equipment. Cell density and viability were measured using the standard technique of trypan blue exclusion using a Cedex (Roche Innovatis AG, Germany). Cell viability and growth rate of the various cultures were measured during the culture time course at specific days post-inoculation. […] The typical culture process is a 14-day process that consists of a growth phase from Day 0 to Day 6 at 37° C. and a protein production phase from Day 6 to Day 14 at 30° C. [table]

CHO-602 = CHO-602 fed-batch shake flask culture: N-glycan (HILIC-UPLC), sialylation and ProG titer; format: cell-based, Chinese hamster; details: for % NGNA / % afucose / TSA (mol/chain): Day 12, GlcN 10 mM bolus D6, combination: plus galactose 20 g/L in feed (4 g/L final)
Method: FIG. 2A and FIG. 2B. Effect of glucosamine and galactose on the growth (FIG. 2A) and viability (FIG. 2B) of fed-batch shake flask cultures of immunoadhesin-expressing CHO cells. Glucosamine was delivered as 10 mM boli on Day 6 for the 10 mM conditions and again on Day 8 for the 20 mM condition. In the glucosamine and galactose combination conditions, galactose was delivered as part of the 5×-concentrated DMEM/F12 feed media at a concentration of 20 g/L in the feed. The Day 14 final concentration of galactose was 4 g/L, due to 20% feeding.
FIG. 6A and FIG. 6B. Effect of copper (II) sulfate and Hypoxanthine-Thymidine (HT) supplement on the growth (FIG. 6A) and viability (FIG. 6B) of immunoadhesin-expressing CHO cells in fed-batch shake flasks. […] Copper (II) sulfate, hypoxanthine, and thymidine were delivered as part of the 5×-concentrated DMEM/F12 feed media at a concentration of 1 mM, 1 mM, and 0.16 mM respectively in the feed media for the HT Low condition and 1 mM, 3 mM, and 0.5 mM respectively in the feed media for the HT High condition. The Day 14 final concentration of CuSO4, hypoxanthine, and thymidine in the culture was 0.30 mM, 0.30 mM, and 0.05 mM respectively for the HT Low condition and 0.30 mM, 1 mM, and 0.16 mM respectively for the HT High condition due to 30% feeding.
Cell culture methods: Cells were thawed and maintained as in a previous report (Kshirsagar, et al. 2012 Biotechnol Bioeng, Huang, et al. Biotechnology Progress 26(5):1400-1410 (2010)). Basal medium for thaw and passing was the same as in previous reports (Kshirsagar/Huang). Briefly, cells were thawed and maintained in 3 L shake flasks (Corning Life Sciences, Corning, N.Y.) with 1 L working volumes and were passaged every 2-3 days. For maintenance cultures the incubator was controlled at 37° C. and 5% CO2.
as §2, §1

FcγRIIIa = experiment: % FcγRIIIa binding of purified product relative to Enbrel innovator material; details: for % FcγRIIIa: Day 14 product, ProA and HIC purified, relative to Enbrel innovator material, hypoxanthine 1 mM or guanine 0.2 mM bolus D6; for levels of FcγRIIIa binding: addition to fed-batch shake flask cultures
[3] = feed supp. w/1 mM CuSO4 (0.2 mM final Day 14), Day 12
[4] = Day 14, CuSO4 1 mM in feed (0.25 mM final; 0.22 mM in combination), GlcN two 10 mM boli D6, D8, galactose 2.4 g/L final
[5] = Day 12, GlcN two 10 mM boli D2, D4, combination: plus galactose 20 g/L in feed (6 g/L final)
[6] = Day 12, GlcN two 10 mM boli D2, D4, combination: plus galactose 20 g/L in feed (6 g/L final), listed as glucosamine
[7] = ExptA, ProG, hypoxanthine 1 mM or guanine 0.2 mM bolus D6
[8] = ExptA, Day 14, hypoxanthine 1 mM or guanine 0.2 mM bolus D6
[9] = ExptB, ProG, hypoxanthine 1 mM or guanine 0.2 mM bolus D6
[10] = ExptB, Day 14, hypoxanthine 1 mM or guanine 0.2 mM bolus D6

SMILES: O=S(=O)([O-])[O-].[Cu+2] [CuSO4, copper (II) sulfate]
Titer ([1]; 0.2 mM CuSO4 D6 bolus): 1.9 g/L
% afucose ([1]; 0.2 mM CuSO4 D6 bolus, Day 12): 8.2%
% charged ([1]; 0.2 mM CuSO4 D6 bolus, Day 12): 42.1%
% galactosylation ([1]; 0.2 mM CuSO4 D6 bolus, Day 12): 70.3%
Titer ([1]; 0.5 mM CuSO4 D6 bolus): 1.9 g/L
% afucose ([1]; 0.5 mM CuSO4 D6 bolus, Day 12): 8.2%
% charged ([1]; 0.5 mM CuSO4 D6 bolus, Day 12): 42.4%
% galactosylation ([1]; 0.5 mM CuSO4 D6 bolus, Day 12): 68.5%
% afucose, % galactosylation, and % charged levels of N-linked glycosylation ([1]; copper (II) sulfate alone, shake flask): toward values associated with a comparator polypeptide
Titer ([1]; feed supp. w/1 mM CuSO4 (0.2 mM final Day 14)): 1.8 g/L
% afucose [1, 3]: 8.4%
% charged [1, 3]: 43.7%
% galactosylation [1, 3]: 62.7%
% NGNA [2, 4]: 0.7%
% afucose [2, 4]: 7.1%
% charged [2, 4]: 41.9%
% galact. [2, 4]: 65.4%
% α-gal [2, 4]: 0.4%
TSA (mol/chain) [2, 4]: 13.5 mol/chain
Titer ([2]; Day 14 harvest, CuSO4 1 mM in feed, combination with GlcN two 10 mM boli and galactose 2.4 g/L final): 2.0 g/L

SMILES: N[C@H]1C(O)O[C@H](CO)[C@@H](O)[C@@H]1O (some centres unmarked) [GlcN, glucosamine]
% NGNA (CHO-043 cells; [5]): 3.8%
% afucose (CHO-043 cells; [5]): 1.7%
% α-gal (CHO-043 cells; [5]): 2.4%
TSA (mol/chain) (CHO-043 cells; [5]): 6.6 mol/chain
% α-gal (CHO-043 cells; [6]): reduced
TSA (mol/chain) (CHO-043 cells; [6]): 6 mol/chain
Titer (CHO-043 cells; Day 12 harvest, ProG, GlcN two 10 mM boli D2, D4, combination: plus galactose (6 g/L final)): 1.8 g/L
% NGNA (CHO-602): 1.3%
% afucose (CHO-602): 8.9%
TSA (mol/chain) (CHO-602): 11.1 mol/chain
% NGNA (CHO-602; listed as glucosamine): little effect
% afucose (CHO-602; listed as glucosamine): little effect
TSA (mol/chain) (CHO-602; listed as glucosamine): reduce sialylation
Titer (CHO-602; Day 14 harvest, ProG, GlcN 10 mM bolus D6, combination: plus galactose (4 g/L final)): 1.4 g/L

% FcγRIIIa (FcγRIIIa; ExptA): 92%
% FcγRIIIa (FcγRIIIa; ExptB): 121%
SMILES: Nc1nc2nc[nH]c2c(=O)[nH]1 [Guanine, guanine]
Titer [1, 7]: 1.5 g/L
% afucose [1, 8]: 10.5%
Titer [1, 9]: 1.6 g/L
% afucose [1, 10]: 10.2%
% afucose levels [1]: no change
levels of FcγRIIIa binding (FcγRIIIa): within the range of a comparator polypeptide

% FcγRIIIa (FcγRIIIa; ExptA): 85%
% FcγRIIIa (FcγRIIIa; ExptB): 122%
SMILES: O=c1[nH]cnc2nc[nH]c12 [Hypoxanthine, hypoxanthine]
Titer [1, 7]: 1.7 g/L
% afucose [1, 8]: 9.5%
Titer [1, 9]: 1.6 g/L
% afucose [1, 10]: 8.3%
% afucose levels [1]: no change
levels of FcγRIIIa binding (FcγRIIIa): within the range of a comparator polypeptide
